In US20040009273A1, “Method for the long-term preservation of meat and the meat process thereby” (priority 1996, published 2004):

What was measured:
Type in all cases: cell-based
[1] = test system: bacteria present on the surface of meat samples; test: Bacterial growth under air, CO and N2 atmospheres, non-selective agar plates (Bactoagar); conditions: 4 g meat samples flushed with gas, 24 h at 15±3° C.; plates overnight at 37° C.
Procedure: (§1) Meat samples weighing 4.00+0.18 grams, were treated by flushing with either air, CO, or N2. After twenty-four hours of storage at room temperature (15±3° C.) each of the treated meat samples was soaked in sterile 0.15M sodium chloride (1 ml per 2 grams of treated meat) for ninety minutes to extract any bacteria present on the surface of individual samples. Aliquots of serial dilutions of the extracts were plated onto non-selective agar plates (Bactoagar, Difco) and on Gram negative selective plates (MacConkey, Difco). All the plates were incubated over night at 37° C. to allow bacterial growth.

[2] = test system: Gram negative bacteria on the surface of meat samples; test: Bacterial growth under air, CO and N2 atmospheres, Gram negative selective plates (MacConkey); conditions: 4 g meat samples flushed with gas, 24 h at 15±3° C.; MacConkey plates overnight at 37° C.
Procedure: as §1

[3] = test system: E coli; test: Growth of inoculated E coli on meat under defined atmospheres; conditions: beef; high CO (95-100%) or low (10%) CO versus untreated
Procedure: (§2) Studies were carried out comparing growth of inoculated pathogenic bacteria on fresh meat under three atmospheres. Air and two CO containing modified atmospheres: high CO (95-100%) and low (10%) CO. In low CO MA CO was replaced by an inert gas, nitrogen. Note that in most experiments the CO untreated control was the same for both modified atmospheres. Experiments with E coli were carried out on different meat controls.

[4] = test system: Pseudomonas fluorescence; test: Growth of inoculated Pseudomonas fluorescence on meat under defined atmospheres; conditions: beef and poultry; high CO (95-100%) or low (10%) CO versus untreated
Procedure: as §2

[5] = test system: Staphylococcus aures; test: Growth of inoculated Staphylococcus aures on meat under defined atmospheres; conditions: beef; high CO (95-100%) versus untreated
Procedure: as §2

[6] = test system: Listeria monocytogenes; test: Growth of inoculated Listeria monocytogenes on meat under defined atmospheres; conditions: beef and poultry; high CO (95-100%) or low (10%) CO versus untreated
Procedure: as §2

[7] = test system: Clostridium prefringens; test: Growth of inoculated Clostridium prefringens on meat under defined atmospheres; conditions: beef and poultry; high CO (95-100%) or low (10%) CO versus untreated
Procedure: as §2

[8] = test system: Salmonella Typhimirium; test: Growth of inoculated Salmonella Typhimirium on meat under defined atmospheres; conditions: beef; high CO (95-100%) or low (10%) CO versus untreated
Procedure: as §2

SMILES	No of calories, Grown on bactoagar (bacterial colony counts per gram of meat, mean±SD) [1]	No of calories, Gram negative (bacterial colony counts per gram of meat, mean±SD) [2]	growth of E coli [3]	growth of Pseudomonas fluorescence [4]	growth of Staphylococcus aures [5]	growth of Listeria monocytogenes [6]	growth of Clostridium prefringens [7]	growth of Salmonella Typhimirium [8]
[C-]#[O+] [CO, carbon monoxide]	(0.29 ± 0.01) × 10^6 per gram of meat	0.02 ± 0.01) × 10^6 per gram of meat	inhibited	inhibited	inhibited	inhibited	inhibited	inhibited
N#N [N2, nitrogen, reference compound]	(1.63 ± 0.3) × 10^6 per gram of meat	(0.46 + 0.25) × 10^6 per gram of meat	–	–	–	–	–	–
